According to patent publication US11613538B2, “Method of inhibiting or reducing a viral infection” (PTC Therapeutics, Inc., priority 2009, dated 2023):

What follows are compounds tested on hypoxia-induced VEGF production in HeLa cells (assay: cells). Conditions: Homo sapiens, HeLa.
Type: cell-based, human
CCOC(=O)N1CCc2c([nH]c3ccc(Cl)cc23)C1c1ccc(OCCn2nc(N)cc2C)cc1 (centres unmarked) [Compound 1399] was tested, and the EC50 was < 8 nM. [H]/N=c1\scnn1CCOc1ccc(C2c3[nH]c4ccc(Cl)cc4c3CCN2C(=O)OCC)cc1 (centres unmarked) [Compound 1400] was tested, and the EC50 was < 8 nM. CCOC(=O)N1CCc2c([nH]c3ccc(Cl)cc23)C1c1ccc(OCCn2cc(C#N)c(N)n2)cc1 (centres unmarked) [Compound 1401] was tested, and the EC50 was 8 to 40 nM. For [H]/N=C(\N)NCCOc1ccc(C2c3[nH]c4ccc(Cl)cc4c3CCN2C(=O)OCC#CC)cc1 (centres unmarked) [Compound 1402], the EC50 was 200 to 1000 nM. In the case of [H]/N=c1\scnn1CCOc1ccc(C2c3[nH]c4ccc(Cl)cc4c3CCN2C(=O)OCC#CC)cc1 (centres unmarked) [Compound 1403], the EC50 is reported as < 8 nM. With CC#CCOC(=O)N1CCc2c([nH]c3ccc(Cl)cc23)C1c1ccc(OCCn2cc(C(N)=O)c(N)n2)cc1 (centres unmarked) [Compound 1404] the EC50 was 40 to 200 nM. Cc1cc(NCCOc2ccc(C3c4[nH]c5ccc(Cl)cc5c4CCN3C(=O)OCC(C)C)cc2)on1 (centres unmarked) [Compound 1405] was tested, and the EC50 was 40 to 200 nM. Compound CC(C)COC(=O)N1CCc2c([nH]c3ccc(Cl)cc23)C1c1ccc(OCCOc2cc(N)n[nH]2)cc1 (centres unmarked) [Compound 1406] has an EC50 of 40 to 200 nM. In the case of [H]/N=c1\scnn1CCOc1ccc(C2c3[nH]c4ccc(Cl)cc4c3CCN2C(=O)OCC(C)C)cc1 (centres unmarked) [Compound 1407], the EC50 is reported as < 8 nM. With CC(C)COC(=O)N1CCc2c([nH]c3ccc(Cl)cc23)C1c1ccc(OCCn2cc(C#N)c(N)n2)cc1 (centres unmarked) [Compound 1408] the EC50 was < 8 nM. CC(C)COC(=O)N1CCc2c([nH]c3ccc(Cl)cc23)C1c1ccc(OCCNc2ncc[nH]2)cc1 (centres unmarked) [Compound 1409] showed an EC50 of 200 to 1000 nM. With [H]/N=C(\N)NCCOc1ccc(C2c3[nH]c4ccc(Cl)cc4c3CCN2C(=O)OCCOC)cc1 (centres unmarked) [Compound 1410] the EC50 was > 1000 nM. Work on COCCOC(=O)N1CCc2c([nH]c3ccc(Cl)cc23)C1c1ccc(OCCNc2cc(C)no2)cc1 (centres unmarked) [Compound 1411] yielded an EC50 of 200 to 1000 nM. Compound [H]/N=c1\scnn1CCOc1ccc(C2c3[nH]c4ccc(Cl)cc4c3CCN2C(=O)OCCOC)cc1 (centres unmarked) [Compound 1412] has an EC50 of 8 to 40 nM. In the case of CCOC(=O)N1CCc2c([nH]c3cc(C(F)(F)F)ccc23)C1c1ccc(OC)cc1 (centres unmarked) [Compound 1423], the EC50 is reported as > 1000 nM. COc1ccc(C2c3[nH]c4cc(C(F)(F)F)ccc4c3CCN2C(=O)Oc2ccc(F)cc2)cc1 (centres unmarked) [Compound 1424] was tested, and the EC50 was > 1000 nM. For COc1ccc(OC(=O)N2CCc3c([nH]c4cc(C(F)(F)F)ccc34)C2c2ccc(OC)cc2)cc1 (centres unmarked) [Compound 1425], the EC50 was > 1000 nM. With COc1ccc(C2c3[nH]c4c(C)cccc4c3CCN2C(=O)Oc2ccc(C)cc2)cc1 (centres unmarked) [Compound 1426] the EC50 was > 1000 nM. With COc1ccc(OC(=O)N2CCc3c([nH]c4c(C)cccc34)C2c2ccc(OC)cc2)cc1 (centres unmarked) [Compound 1427] the EC50 was > 1000 nM. CCOC(=O)N1CCc2c([nH]c3c(C)cccc23)C1c1ccc(OC)cc1 (centres unmarked) [Compound 1428] was tested, and the EC50 was > 1000 nM. With COc1ccc(C2c3[nH]c4c(C)cccc4c3CCN2C(=O)Oc2ccc(Cl)cc2)cc1 (centres unmarked) [Compound 1429] the EC50 was > 1000 nM. In the case of CC#CCOC(=O)N1CCc2c([nH]c3c(C)cccc23)C1c1ccc(OC)cc1 (centres unmarked) [Compound 1430], the EC50 is reported as > 1000 nM. COC(=O)N1CCc2c([nH]c3c(C)cccc23)C1c1ccc(OC)cc1 (centres unmarked) [Compound 1431] was tested, and the EC50 was > 1000 nM. Compound N=C1SCCN1CCCOc1ccc(C2c3[nH]c4ccc(Cl)cc4c3CCN2C(=O)OCCF)cc1 (centres unmarked) [Compound 1432] has an EC50 of 8 to 40 nM. In the case of CCOC(=O)N1CCc2c([nH]c3ccc(Cl)cc23)C1c1ccc(OCCNc2ncncn2)cc1 (centres unmarked) [Compound 1433], the EC50 is reported as < 8 nM. For CC#CCOC(=O)N1CCc2c([nH]c3ccc(Cl)cc23)C1c1ccc(OCCn2cc(C#N)c(N)n2)cc1 (centres unmarked) [Compound 1434], the EC50 was < 8 nM. Compound [H]/N=C(\N)NCCOc1ccc(C2c3[nH]c4ccc(Cl)cc4c3CCN2C(=O)OCC(C)C)cc1 (centres unmarked) [Compound 1435] has an EC50 of 200 to 1000 nM. In the case of CC(C)COC(=O)N1CCc2c([nH]c3ccc(Cl)cc23)C1c1ccc(OCCNc2ncncn2)cc1 (centres unmarked) [Compound 1436], the EC50 is reported as < 8 nM. In the case of COCCOC(=O)N1CCc2c([nH]c3ccc(Cl)cc23)C1c1ccc(OCCn2nc(N)cc2C)cc1 (centres unmarked) [Compound 1437], the EC50 is reported as 8 to 40 nM. With COCCOC(=O)N1CCc2c([nH]c3ccc(Cl)cc23)C1c1ccc(OCCn2cc(C#N)c(N)n2)cc1 (centres unmarked) [Compound 1438] the EC50 was 40 to 200 nM. Work on CC#CCOC(=O)N1CCc2c([nH]c3cc(Cl)ccc23)C1c1ccc(OC)cc1 (centres unmarked) [Compound 1443] yielded an EC50 of 200 to 1000 nM. COc1ccc(C2c3[nH]c4cc(Cl)ccc4c3CCN2C(=O)Oc2ccc(Cl)cc2)cc1 (centres unmarked) [Compound 1444] gave an EC50 of 40 to 200 nM. Compound CC#CCOC(=O)N1CCc2c([nH]c3cc(Br)ccc23)C1c1ccc(OC(F)F)cc1 (centres unmarked) [Compound 1445] has an EC50 of 40 to 200 nM. O=C(Oc1ccc(Cl)cc1)N1CCc2c([nH]c3cc(Br)ccc23)C1c1ccc(OC(F)F)cc1 (centres unmarked) [Compound 1446] gave an EC50 of 40 to 200 nM. Compound COc1ccc(OC(=O)N2CCc3c([nH]c4cc(Br)ccc34)C2c2ccc(OC(F)F)cc2)cc1 (centres unmarked) [Compound 1447] has an EC50 of 40 to 200 nM. O=C(OCCF)N1CCc2c([nH]c3cc(Br)ccc23)C1c1ccc(OC(F)F)cc1 (centres unmarked) [Compound 1448] showed an EC50 of 200 to 1000 nM. O=C(Oc1ccccc1Cl)N1CCc2c([nH]c3cc(Br)ccc23)C1c1ccc(OC(F)F)cc1 (centres unmarked) [Compound 1449] was tested, and the EC50 was 200 to 1000 nM. For O=C(Oc1ccc(F)cc1)N1CCc2c([nH]c3cc(Br)ccc23)C1c1ccc(OC(F)F)cc1 (centres unmarked) [Compound 1450], the EC50 was 40 to 200 nM. COc1ccc(OC(=O)N2CCc3c([nH]c4cc(Cl)ccc34)C2c2ccc(OC)cc2)cc1 (centres unmarked) [Compound 1455] was tested, and the EC50 was > 1000 nM. With CC#CCOC(=O)N1CCc2c([nH]c3cc(F)ccc23)C1c1ccc(C)cc1 (centres unmarked) [Compound 1456] the EC50 was > 1000 nM. With Cc1ccc(C2c3[nH]c4cc(F)ccc4c3CCN2C(=O)Oc2ccc(Cl)cc2)cc1 (centres unmarked) [Compound 1457] the EC50 was 200 to 1000 nM. In the case of COc1ccc(OC(=O)N2CCc3c([nH]c4cc(F)ccc34)C2c2ccc(F)cc2)cc1 (centres unmarked) [Compound 1458], the EC50 is reported as > 1000 nM. O=C(Oc1ccc(Cl)cc1)N1CCc2c([nH]c3cc(F)ccc23)C1c1ccc(F)cc1 (centres unmarked) [Compound 1459] was tested, and the EC50 was > 1000 nM. For COc1ccc(OC(=O)N2CCc3c([nH]c4cc(F)ccc34)C2c2ccc(OC)cc2)cc1 (centres unmarked) [Compound 1460], the EC50 was > 1000 nM. With COc1ccc(C2c3[nH]c4cc(F)ccc4c3CCN2C(=O)Oc2ccc(Cl)cc2)cc1 (centres unmarked) [Compound 1461] the EC50 was 200 to 1000 nM. Compound COc1ccc(OC(=O)N2CCc3c([nH]c4cc(F)ccc34)C2c2ccc(OC(F)F)cc2)cc1 (centres unmarked) [Compound 1462] has an EC50 of 200 to 1000 nM. Work on O=C(Oc1ccc(Cl)cc1)N1CCc2c([nH]c3cc(F)ccc23)C1c1ccc(OC(F)F)cc1 (centres unmarked) [Compound 1463] yielded an EC50 of 40 to 200 nM. Compound CCOC(=O)N1CCc2c([nH]c3ccc(Cl)cc23)C1c1ccc(OCC(O)CNC(=O)CC)cc1 (centres unmarked) [Compound 1464] has an EC50 of 8 to 40 nM. For CCOC(=O)N1CCc2c([nH]c3ccc(Cl)cc23)C1c1ccc(OCC(O)CNC(=O)C(C)C)cc1 (centres unmarked) [Compound 1465], the EC50 was 8 to 40 nM. For CCOC(=O)N1CCc2c([nH]c3ccc(Cl)cc23)C1c1ccc(OCC(O)CNC(=O)C2CC2)cc1 (centres unmarked) [Compound 1466], the EC50 was 8 to 40 nM. In the case of CCOC(=O)N1CCc2c([nH]c3ccc(Cl)cc23)C1c1ccc(OCC(O)CNC(=O)c2ccncc2)cc1 (centres unmarked) [Compound 1467], the EC50 is reported as < 8 nM. In the case of CCOC(=O)N1CCc2c([nH]c3ccc(Cl)cc23)C1c1ccc(OCC(O)CNC(=O)c2cccnc2)cc1 (centres unmarked) [Compound 1468], the EC50 is reported as < 8 nM. In the case of CCOC(=O)N1CCc2c([nH]c3ccc(Cl)cc23)C1c1ccc(OCC(O)CNC(=O)c2ccccn2)cc1 (centres unmarked) [Compound 1469], the EC50 is reported as < 8 nM. For CCOC(=O)NCC(O)COc1ccc(C2c3[nH]c4ccc(Cl)cc4c3CCN2C(=O)OCC)cc1 (centres unmarked) [Compound 1470], the EC50 was < 8 nM. In the case of CCCOC(=O)NCC(O)COc1ccc(C2c3[nH]c4ccc(Cl)cc4c3CCN2C(=O)OCC)cc1 (centres unmarked) [Compound 1471], the EC50 is reported as < 8 nM. In the case of CCOC(=O)N1CCc2c([nH]c3ccc(Cl)cc23)C1c1ccc(OCC(O)CNC(=O)OCCOC)cc1 (centres unmarked) [Compound 1472], the EC50 is reported as < 8 nM. With CCOC(=O)N1CCc2c([nH]c3ccc(Cl)cc23)C1c1ccc(OCC(O)CNS(=O)(=O)CC)cc1 (centres unmarked) [Compound 1473] the EC50 was < 8 nM. CCOC(=O)N1CCc2c([nH]c3ccc(Cl)cc23)C1c1ccc(OCC(O)CNS(=O)(=O)C(C)C)cc1 (centres unmarked) [Compound 1474] was tested, and the EC50 was 8 to 40 nM. CCOC(=O)N1CCc2c([nH]c3ccc(Cl)cc23)C1c1ccc(OCC(O)CNS(=O)(=O)C2CC2)cc1 (centres unmarked) [Compound 1475] was tested, and the EC50 was < 8 nM. Work on O=C(Oc1ccc(Cl)cc1)N1CCc2c([nH]c3ccc(Cl)cc23)C1c1ccc(OCCCN2CC[C@@H](O)C2)cc1 (some centres unmarked) [Compound 1476] yielded an EC50 of 40 to 200 nM. COc1ccc(C2c3[nH]c4ccc(Cl)cc4c3CCN2C(=S)Oc2ccc(C)cc2)cn1 (centres unmarked) [Compound 1477] was tested, and the EC50 was 8 to 40 nM. Work on COc1ccc(OC(=O)N2CCc3c([nH]c4ccc(Cl)cc34)C2c2ccc(OC)nc2)cc1 (centres unmarked) [Compound 1478] yielded an EC50 of 40 to 200 nM. COc1ccc(C2c3[nH]c4ccc(Cl)cc4c3CCN2C(=O)Oc2ccc(Cl)cc2)cn1 (centres unmarked) [Compound 1479] was tested, and the EC50 was 8 to 40 nM. CCOC(=O)N1CCc2c([nH]c3ccc(Cl)cc23)C1c1ccc(OC)nc1 (centres unmarked) [Compound 1480] was tested, and the EC50 was 8 to 40 nM. Compound COc1ccc(C2c3[nH]c4ccc(Cl)cc4c3CCN2C(=O)OCC(C)C)cn1 (centres unmarked) [Compound 1481] has an EC50 of 8 to 40 nM. In the case of CCOC(=O)N1CCc2c([nH]c3ccc(SC)cc23)C1c1ccc(OC)cc1 (centres unmarked) [Compound 1482], the EC50 is reported as 40 to 200 nM. With COc1ccc(C2c3[nH]c4ccc(SC)cc4c3CCN2C(=O)Oc2ccc(Cl)cc2)cc1 (centres unmarked) [Compound 1483] the EC50 was 8 to 40 nM. Work on COc1ccc(OC(=O)N2CCc3c([nH]c4ccc(SC)cc34)C2c2ccc(OC)cc2)cc1 (centres unmarked) [Compound 1484] yielded an EC50 of 40 to 200 nM. Work on COc1ccc(C2c3[nH]c4ccc(SC)cc4c3CCN2C(=S)Oc2ccc(F)cc2)cc1 (centres unmarked) [Compound 1486] yielded an EC50 of 8 to 40 nM. For COc1ccc(C2NCCc3c2[nH]c2ccc(SC)cc32)cc1 (centres unmarked) [Compound 1487], the EC50 was > 1000 nM. In the case of CCOC(=O)N1CCc2c([nH]c3ccc([S+](C)[O-])cc23)C1c1ccc(OC)cc1 (centres unmarked) [Compound 1488], the EC50 is reported as > 1000 nM. In the case of COc1ccc(C2c3[nH]c4ccc([S+](C)[O-])cc4c3CCN2C(=O)Oc2ccc(Cl)cc2)cc1 (centres unmarked) [Compound 1489], the EC50 is reported as > 1000 nM. In the case of COc1ccc(OC(=O)N2CCc3c([nH]c4ccc([S+](C)[O-])cc34)C2c2ccc(OC)cc2)cc1 (centres unmarked) [Compound 1490], the EC50 is reported as > 1000 nM. COc1ccc(C2c3[nH]c4ccc([S+](C)[O-])cc4c3CCN2C(=O)Oc2ccc(F)cc2)cc1 (centres unmarked) [Compound 1491] was tested, and the EC50 was > 1000 nM.
